Measurements: EP4620949A1, “ACKR3 MODULATORS FOR CARDIOVASCULAR OR ANTIPLATELET THERAPY” (Eberhard Karls Universität Tübingen (Medizinische Fakultät), priority 2024, dated 2025)
Where “and” joins values, the source holds several entries; their conditions need not be identical. Identical values can stand only once.

What was measured:
human ACKR3 = target: T1, human ACKR3 (Homo sapiens, UniProt P25106); experiment: ACKR3 β-Arrestin recruitment assay (NanoLuc complementation, NanoBiT) in HEK293T cells; format: cell-based; settings: for EC50: ACKR3, HEK293T cells, average value of three independent experiments; for Efficacy (Emax) vs CXCL12: efficacy of CXCL12 at 300 nM set as 100%, average of three independent experiments
T1 construct: expressed in transfected cells; host or cells: HEK293T
Protocol: ACKR3 β-Arrestin Recruitment Assay. […] T.; Encell, L. P.; Wood, K. V. Nanoluc complementation reporter optimized for accurate measurement of protein interactions in cells. […] B.; Reynders, N.; Vanderplasschen, A.; Ollert, M.; Bouvier, M.; Szpakowska, M.; Chevigné, A. Proadrenomedullin n-terminal 20 peptides (pamps) are agonists of the chemokine scavenger receptor ACKR3/CXCR7. […] The prepared cells were then treated with compounds at concentrations ranging from 0.3 nM to 100 µM. Induction of β-Arrestin recruitment to receptors was evaluated by measuring bioluminescence with a Mithras LB940 luminometer (Berthold Technologies).
All curves were fitted to data points generated from the mean of at least three independent experiments. Results with values of p < 0.05 were considered statistically significant.

platelets = experiment: Flow cytometry assay of platelet degranulation (P-Selectin surface expression in PRP); format: cell-based, human; settings: for P-Selectin expression reduction: PRP pre-incubated with compound (100 µM), then CRP-XL (1 µg/mL), % ±SEM normalized to CRP-XL-treated vehicle PRP
Protocol: Platelet Degranulation Studies of Derivatives. Concurrent with the β-Arrestin recruitment potency optimization, the compounds were also tested and developed according to their functional activity. To determine the ability of a compound to modulate platelets, P-Selectin surface expression was measured. P-Selectin is a surface protein involved in cell adhesion mechanisms and can be found on activated platelets. After induction of platelet aggregation in platelet-rich plasma (PRP), treatment with the respective compound should therefore lead to a significant reduction in P-Selectin expression. […]. […]. Similarly, platelet degranulation potency was highly sensitive toward "linker"-changes (Structure C, Table 1). A distinct trend could not be registered. […]. Flow Cytometry Assay. The inhibition of platelet degranulation was determined via flow cytometry experiments. Platelets were treated with collagen-related peptide (CRP-XL, CambCol Laboratories, Cambridge, UK) and the platelets' activation state was determined (Geue, S.; Aurbach, K.; Manke, M.-C.; Manukjan, G.; Münzer, P.; Stegner, D.; Brähler, C.; Walker-Allgaier, B.; Märklin, M.; Borst, C. E.; Quintanilla-Fend, L.; Rath, D.; Geisler, T.; Salih, H. R.; Seizer, P.; Lang, F.; Nieswandt, B.; Gawaz, M.; Schulze, H.; Pleines, I.; Borst, O. Pivotal role of pdk1 in megakaryocyte cytoskeletal dynamics and polarization during platelet biogenesis. Blood 2019, 134, 1847-1858; and Malehmir, M.; Pfister, D.; Gallage, S.; Szydlowska, M.; Inverso, D.; Kotsiliti, E.; Leone, V.; Peiseler, M.; Surewaard, B. G. J.; Rath, D.; Ali, A.; Wolf, M. J.; Drescher, H.; Healy, M. E.; Dauch, D.; Kroy, D.; Krenkel, O.; Kohlhepp, M.; Engleitner, T.; Olkus, A.; Sijmonsma, T.; Volz, J.; Deppermann, C.; Stegner, D.; Helbling, P.; Nombela-Arrieta, C.; Rafiei, A.; Hinterleitner, M.; Rail, M.; Baku, F.; Borst, O.; Wilson, C. L.; Leslie, J.; O'Connor, T.; Wes-ton, C. J.; Chauhan, A.; Adams, D. H.; Sheriff, L.; Teijeiro, A.; Prinz, M.; Bogeska, R.; An-stee, N.; Bongers, M. N.; Notohamiprodjo, M.; Geisler, T.; Withers, D. J.; Ware, J.; Mann, D. A.; Augustin, H. G.; Vegiopoulos, A.; Milsom, M. D.; Rose, A. J.; Lalor, P. F.; Llovet, J. M.; Pinyol, R.; Tacke, F.; Rad, R.; Matter, M.; Djouder, N.; Kubes, P.; Knolle, P. A.; Unger, K.; Zender, L.; Nieswandt, B.; Gawaz, M.; Weber, A.; Heikenwalder, M. Platelet gpibα is a mediator and potential interventional target for nash and subsequent liver cancer. Nat. Med. 2019, 25, 641-655). Briefly, PRP was isolated from peripheral human blood collected in citrate-phosphate-dextrose solution with adenine (CPDA) and diluted with phosphate-buffered saline (PBS) (Sigma Aldrich Co., Ltd., St. Luis, Missouri, USA) supplemented with CaCl2 and MgCl2. PRP (106 platelets /sample) was preincubated with the respective compound (100 µM) for 15 min. Samples were treated with 1 µg/ml CRP-XL (CambCol Laboratories, Cambridge, UK) for 30 min at room temperature in the presence of the respective fluorochrome-conjugated antibody against P-Selectin (CD62P-FITC; Beckman Coulter, Brea, CA, USA). Subsequently, samples were fixed in 0.5% paraformaldehyde and analyzed on a FACS-Calibur flow cytometer (FACS-Caliber flow cytometer, Becton-Dickinson, East Rutherford, NJ, USA). Mean fluorescence intensity (MFI) was used as a quantitative measurement of platelet surface expression.

T1 sequence (P25106 whole entry): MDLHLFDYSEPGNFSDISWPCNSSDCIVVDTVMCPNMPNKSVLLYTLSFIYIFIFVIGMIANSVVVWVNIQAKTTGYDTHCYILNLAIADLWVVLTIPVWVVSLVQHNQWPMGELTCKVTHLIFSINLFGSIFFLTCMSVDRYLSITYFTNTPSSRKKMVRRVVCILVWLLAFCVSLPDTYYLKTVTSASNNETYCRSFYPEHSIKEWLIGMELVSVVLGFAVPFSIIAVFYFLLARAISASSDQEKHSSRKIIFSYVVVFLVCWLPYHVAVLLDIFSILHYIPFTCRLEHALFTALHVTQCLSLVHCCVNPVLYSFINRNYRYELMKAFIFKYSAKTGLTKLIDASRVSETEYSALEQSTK
T1 sequence (P49407 whole entry partner): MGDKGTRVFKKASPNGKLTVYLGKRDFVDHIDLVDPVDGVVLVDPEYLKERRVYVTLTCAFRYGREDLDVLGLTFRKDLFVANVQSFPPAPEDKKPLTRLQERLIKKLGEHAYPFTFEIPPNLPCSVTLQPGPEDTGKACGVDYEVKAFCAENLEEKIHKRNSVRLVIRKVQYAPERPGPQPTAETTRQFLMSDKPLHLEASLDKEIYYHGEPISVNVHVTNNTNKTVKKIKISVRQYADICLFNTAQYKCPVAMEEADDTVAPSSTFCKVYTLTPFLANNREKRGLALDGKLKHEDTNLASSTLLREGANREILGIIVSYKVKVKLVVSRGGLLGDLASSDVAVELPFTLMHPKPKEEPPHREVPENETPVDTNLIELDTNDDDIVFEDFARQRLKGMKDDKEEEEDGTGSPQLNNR

| Compound | EC50 (human ACKR3) | P-Selectin expression reduction (platelets) | other results |
| --- | --- | --- | --- |
| O=C(NCc1ccccc1)C1CCN(Cc2csc(-c3ccccc3)n2)CC1 [Compound 48, N-benzyl-1-((2-phenylthiazol-4-yl)methyl)piperidine-4-carboxamide] | 1.5 µM and 1.1 µM | – | Efficacy (Emax) vs CXCL12 (human ACKR3): 110% |
| O=C(NCc1cccc([N+](=O)[O-])c1)c1ccc(-c2ccccc2)s1 [Compound 42, N-(3-nitrobenzyl)-5-phenylthiophene-2-carboxamide] | – | 17±3% | – |
| CN(CCCNC(=O)c1ccc(-c2ccccc2)s1)Cc1cccc(NC(=O)c2ccc(F)cc2)c1 [Compound 36, N-(3-((3-(4-fluorobenzamido)benzyl)(methyl)amino)propyl)-5-phenylthiophene-2-carboxamide] | 2.1 µM and 1.1 µM | – | Efficacy (Emax) vs CXCL12 (human ACKR3): 86% |
| CN(CCCNC(=O)c1cc2ccccc2[nH]1)Cc1ccccc1 [Compound 4, N-(3-(benzyl(methyl)amino)propyl)-1H-indole-2-carboxamide] | 2.67 µM | – | – |
| O=C(NCCCNCc1ccccc1)c1ccc(-c2ccccc2)s1 [Compound 34, N-(3-(benzylamino)propyl)-5-phenylthiophene-2-carboxamide] | – | 95±1% | – |
| CN(CCCNC(=O)c1ccc(Br)s1)Cc1ccccc1 [Compound 2, N-(3-(benzyl(methyl)amino)propyl)-5-bromothiophene-2-carboxamide] | 1.62 µM | – | – |
| CN(CCCNC(=O)c1ccc(-c2ccccc2)s1)Cc1ccccc1 [Compound 1, N-(3-(benzyl(methyl)amino)propyl)-5-phenylthiophene-2-carboxamide] | – | 71% and 74±9% | – |
| CN(CCCNC(=O)c1ccc(-c2ccccc2)s1)Cc1ccc(Br)cc1 [Compound 19, N-(3-((4-bromobenzyl)(methyl)amino)propyl)-5-phenylthiophene-2-carboxamide] | – | 89±3% | – |
| O=C(NCCCN(Cc1ccccc1)C1CC1)c1ccc(-c2ccccc2)s1 [Compound 25, N-(3-(benzyl(cyclopropyl)amino)propyl)-5-phenylthiophene-2-carboxamide] | – | 16±7% | – |
| CC(C)(C)NC(=O)C1CCN(CCCNC(=O)c2ccc(-c3ccccc3)s2)CC1 [Compound 37, N-(tert-butyl)-1-(3-(5-phenylthiophene-2-carboxamido)propyl)piperidine-4-carboxamide] | 3.2 µM and 2.5 µM | – | Efficacy (Emax) vs CXCL12 (human ACKR3): 102% |
| CN(CCCNC(=O)c1ccc(-c2ccccc2F)s1)Cc1ccccc1 [Compound 15, N-(3-(benzyl(methyl)amino)propyl)-5-(2-fluorophenyl)thiophene-2-carboxamide] | – | 71±11% | – |
| CN(CCCNC(=O)c1cc2ccccc2o1)Cc1ccccc1 [Compound 5, N-(3-(benzyl(methyl)amino)propyl)benzofuran-2-carboxamide] | – | 35% | functional activity (in words) (platelets; P-Selectin flow cytometry, "head"-scaffold compounds): inactive |
| CCN(CCCNC(=O)c1ccc(-c2cccc(F)c2)s1)Cc1ccccc1 [Compound 31, N-(3-(benzyl(ethyl)amino)propyl)-5-(3-fluorophenyl)thiophene-2-carboxamide] | – | 95±1% | – |
| O=C(NCCCN1CCc2ccccc2C1)c1ccc(-c2ccccc2)s1 [Compound 35, N-(3-(3,4-dihydroisoquinolin-2(1H)-yl)propyl)-5-phenylthiophene-2-carboxamide] | – | 27±9% | – |
| COc1ccc(CN(C)CCCNC(=O)c2ccc(-c3ccccc3)s2)cc1 [Compound 18, N-(3-((4-methoxybenzyl)(methyl)amino)propyl)-5-phenylthiophene-2-carboxamide] | 0.93 µM | – | – |
| CN(CCCNC(=O)c1ccc(-c2ccccc2)s1)Cc1cccc(F)c1 [Compound 22, N-(3-((3-fluorobenzyl)(methyl)amino)propyl)-5-phenylthiophene-2-carboxamide] | – | 66% and 66±14% | – |
| O=C(Nc1cccc(CNC(=O)c2ccc(-c3ccccc3)s2)c1)c1ccc(F)cc1 [Compound 43, N-(3-(4-fluorobenzamido)benzyl)-5-phenylthiophene-2-carboxamide] | 3.35 µM | – | – |
| CN(CCCNC(=O)c1ccc(-c2ccc(F)cc2)s1)Cc1ccccc1 [Compound 14, N-(3-(benzyl(methyl)amino)propyl)-5-(4-fluorophenyl)thiophene-2-carboxamide] | – | 87±7% | – |
| CC(C)N(CCCNC(=O)c1ccc(-c2ccccc2)s1)Cc1ccccc1 [Compound 24, N-(3-(benzyl(isopropyl)amino)propyl)-5-phenylthiophene-2-carboxamide] | 0.709 µM | – | – |

Further lines, with some results ahead:

| EC50 (human ACKR3) | Compound | P-Selectin expression reduction (platelets) | other results |
| --- | --- | --- | --- |
| 809 µM | CN(CCCNC(=O)CSc1ccccc1)Cc1ccccc1 [Compound 7, N-(3-(benzyl(methyl)amino)propyl)-2-(phenylthio)acetamide] | – | Efficacy (Emax) vs CXCL12 (human ACKR3): 99% |
| 76 µM and 89 µM | O=C(Nc1cccc(CN2CCCN(C(=O)c3ccc(-c4ccccc4)s3)CC2)c1)c1ccc(F)cc1 [Compound 41, 4-fluoro-N-(3-((4-(5-phenylthiophene-2-carbonyl)-1,4-diazepan-1-yl)methyl)phenyl)benzamide] | – | Efficacy (Emax) vs CXCL12 (human ACKR3): 50% |
| 0.775 µM | CN(CCCNC(=O)c1cc2ccccc2s1)Cc1ccccc1 [Compound 3, N-(3-(benzyl(methyl)amino)propyl)benzo[b]thiophene-2-carboxamide] | – | – |
| 0.37 µM | CN(CCCNC(=O)c1ccc(-c2ccccc2)s1)Cc1ccc(F)cc1 [Compound 20, N-(3-((4-fluorobenzyl)(methyl)amino)propyl)-5-phenylthiophene-2-carboxamide] | – | – |
| 1.72 µM | CN(CCCNC(=O)c1ccc(-c2ccncc2)s1)Cc1ccccc1 [Compound 13, N-(3-(benzyl(methyl)amino)propyl)-5-(pyridin-4-yl)thiophene-2-carboxamide] | – | – |
| 4.68 µM | CC(C)(C)OC(=O)N1CCCC(CNC(=O)c2ccc(-c3ccccc3)s2)C1 (stereo not drawn) [Compound 38, tert-butyl 3-((5-phenylthiophene-2-carboxamido)methyl)piperidine-1-carboxylate] | – | – |
| 10.2 µM | CN(CCCNC(=O)c1ccc(-c2ccc(C(C)(C)C)cc2)s1)Cc1ccccc1 [Compound 10, N-(3-(benzyl(methyl)amino)propyl)-5-(4-(tert-butyl)phenyl)thiophene-2-carboxamide] | – | – |
| 3 µM | CN1CCCC1CCNC(=O)c1csc(-c2ccccc2)n1 (stereo not drawn) [Compound 44, N-(2-(1-methylpyrrolidin-2-yl)ethyl)-2-phenylthiazole-4-carboxamide] | – | – |
| 0.576 µM | Cc1ccc(-c2ccc(C(=O)NCCCN(C)Cc3ccccc3)s2)cc1 [Compound 9, N-(3-(benzyl(methyl)amino)propyl)-5-(p-tolyl)thiophene-2-carboxamide] | – | – |
| 0.267 µM | CN(CCCNC(=O)c1ccc(-c2cccc(F)c2)s1)Cc1ccccc1 [Compound 16, N-(3-(benzyl(methyl)amino)propyl)-5-(3-fluorophenyl)thiophene-2-carboxamide] | – | more potent than 1 (human ACKR3; β-Arrestin recruitment potency relative to compound 1): up to 1.5 fold |
